Measurements reported in patent US20250313563A1, “GLYCOGEN SYNTHASE KINASE 3 INHIBITORS AND USES THEREOF” (The Broad Institute, Inc., priority 2022, published 2025).
Where two headings read alike, the source gives them in different places.

Experiments:
[1] = molecular target: GSK3α (GST-full length GSK3α) (Homo sapiens (Human), UniProt P49840); test: GSK3α TR-FRET kinase assay; assay type: biochemical
Procedure, shortened: (§1)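 Compound preincubated 30 min, then 1 nM GST-full-length GSK3α or GSK3b run 100 min at ambient temperature with 200 nM biotinylated, S645-prephosphorylated glycogen synthase 631-650 peptide in Tris pH 7.5, MgCl2, DTT, BSA, 1% DMSO. ATP 4 μM (α) or 2 μM (β), or 1 mM. EDTA-quenched; Tb-anti-pSer641/streptavidin-d2 TR-FRET 665/615 ratio gave IC50.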

[2] = molecular target: GSK3b (GST-full length GSK3b) (Homo sapiens (Human), UniProt P49841); test: GSK3b TR-FRET kinase assay; assay type: biochemical
Procedure, shortened: as §1

[3] = 1 nM GSK3α, 4 μM ATP, 30 minute preincubation, Table 16, read-out: GSK3-A TR-FRET BIOCHEMICAL (TR-FRET)
[4] = 1 nM GSK3b, 2 μM ATP, 30 minute preincubation, Table 16, read-out: GSK3-B TR-FRET BIOCHEMICAL (TR-FRET)
[5] = 1 nM GSK3α, 4 μM ATP, 30 minute preincubation, Table 16, read-out: GSK3-A TR-FRET BIOCHEMICAL (TR-FRET), IC50
[6] = 1 nM GSK3b, 2 μM ATP, 30 minute preincubation, Table 16, read-out: GSK3-B TR-FRET BIOCHEMICAL (TR-FRET), IC50
[7] = 1 nM GSK3α, 4 μM ATP, 30 minute preincubation, read-out: GSK3-A TR-FRET BIOCHEMICAL (TR-FRET), IC50
[8] = 1 nM GSK3b, 2 μM ATP, 30 minute preincubation, read-out: GSK3-B TR-FRET BIOCHEMICAL (TR-FRET), IC50
[9] = read-out: GSK3-A (TR-FRET 1 mM ATP), GMean, IC50, 1 mM ATP, geometric mean
[10] = read-out: GSK3-B (TR-FRET 1 mM ATP), GMean, IC50, 1 mM ATP, geometric mean

GSK3b (GST-full length GSK3b), sequence (P49841 whole entry): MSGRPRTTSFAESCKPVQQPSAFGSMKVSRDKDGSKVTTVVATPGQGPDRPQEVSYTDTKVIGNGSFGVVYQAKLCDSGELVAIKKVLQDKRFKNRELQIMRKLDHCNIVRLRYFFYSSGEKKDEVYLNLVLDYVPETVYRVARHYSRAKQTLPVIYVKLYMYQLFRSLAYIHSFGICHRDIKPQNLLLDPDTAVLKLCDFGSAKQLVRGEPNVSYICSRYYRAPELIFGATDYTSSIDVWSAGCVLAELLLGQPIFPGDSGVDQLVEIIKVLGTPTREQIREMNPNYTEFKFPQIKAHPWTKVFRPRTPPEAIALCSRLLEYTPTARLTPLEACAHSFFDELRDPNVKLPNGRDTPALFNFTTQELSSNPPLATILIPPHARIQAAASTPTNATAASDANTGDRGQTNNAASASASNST
GSK3α (GST-full length GSK3α), sequence (P49840 whole entry): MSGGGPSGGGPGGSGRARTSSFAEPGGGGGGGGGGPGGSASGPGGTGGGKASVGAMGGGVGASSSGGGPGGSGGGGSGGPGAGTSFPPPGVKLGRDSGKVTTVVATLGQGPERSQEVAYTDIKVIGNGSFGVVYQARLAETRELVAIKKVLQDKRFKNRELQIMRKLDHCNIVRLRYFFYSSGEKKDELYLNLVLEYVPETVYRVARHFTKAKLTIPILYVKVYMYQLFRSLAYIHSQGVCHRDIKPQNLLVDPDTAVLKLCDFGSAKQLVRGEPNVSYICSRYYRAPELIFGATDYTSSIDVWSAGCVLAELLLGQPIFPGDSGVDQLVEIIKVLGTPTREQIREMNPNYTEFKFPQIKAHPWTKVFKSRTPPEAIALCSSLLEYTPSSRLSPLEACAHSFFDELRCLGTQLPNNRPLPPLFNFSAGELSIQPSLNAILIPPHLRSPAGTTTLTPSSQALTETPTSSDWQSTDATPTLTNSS

IC50 [1, 3] [nM] | IC50 [2, 4] [nM] | Compound | also measured
≤ 100 | ≤ 100 | CC1(C)CC(=O)C2=C(C1)Nc1n[nH]cc1C21CCC(c2ccccc2)CC1 (stereo not drawn) [Compound 877320] | –
– | – | CC1(C)CC(=O)C2=C(C1)Nc1n[nH]cc1C21CCN(c2ccncc2)CC1 [Compound 880765] | IC50 [1, 5]: > 5000 nM; IC50 [2, 6]: > 5000 nM
≤ 100 | ≤ 100 | CC1(C)CC(=O)C2=C(C1)Nc1n[nH]cc1C21CCN(S(C)(=O)=O)CC1 [Compound 880776] | –
100 to 1000 | 1000 to 5000 | CC1(C)CC(=O)C2=C(Nc3n[nH]cc3C23CCOCC3)[C@H]1F [Compound 883833] | –
100 to 1000 | 1000 to 5000 | CC1(C)CC(=O)C2=C(Nc3n[nH]cc3C23CCOCC3)[C@@H]1F [Compound 883834] | –
100 to 1000 | 100 to 1000 | CC1(C)CC2=C(C(=O)[C@@H]1F)C1(CCOCC1)c1c[nH]nc1N2 [Compound 883835] | –
100 to 1000 | 1000 to 5000 | CC1(C)CC2=C(C(=O)[C@H]1F)C1(CCOCC1)c1c[nH]nc1N2 [Compound 883836] | –
100 to 1000 | 100 to 1000 | C[C@H]1CC[C@]2(C1)C1=C(CC(C)(C)CC1=O)Nc1n[nH]cc12 [Compound 883840] | –
100 to 1000 | 100 to 1000 | C[C@@H]1CC[C@@]2(C1)C1=C(CC(C)(C)CC1=O)Nc1n[nH]cc12 [Compound 883841] | –
100 to 1000 | 1000 to 5000 | CC1(C)CC(=O)C2=C(C1)Nc1n[nH]cc1[C@@]21CCCC(C)(C)C1 [Compound 883846] | –
– | – | CCC1(c2cccc(-c3ccnc(OC)c3)c2)C2=C(CC(C)(C)CC2=O)Nc2n[nH]cc21 (stereo not drawn) [Compound 883850] | IC50 [1, 5]: ≤ 100 nM; IC50 [2, 6]: 100 to 1000 nM
– | – | CCC1(c2cccc(-c3c(C)nn(C)c3C)c2)C2=C(CC(C)(C)CC2=O)Nc2n[nH]cc21 (stereo not drawn) [Compound 883851] | IC50 [1, 5]: ≤ 100 nM; IC50 [2, 6]: ≤ 100 nM
≤ 100 | 100 to 1000 | CC1(C)CC(=O)C2=C(C1)Nc1n[nH]cc1C21CC(C)(C)C1 [Compound 883864] | –
≤ 100 | 100 to 1000 | Cc1[nH]nc2c1C1(CCCCC1)C1=C(CC(C)(C)CC1=O)N2 [Compound 883865] | –
– | – | CCC1(c2ccccc2)C2=C(CCN(C)C2=O)Nc2n[nH]cc21 (stereo not drawn) [Compound 883867] | IC50 [1, 7]: > 5000 nM; IC50 [2, 8]: > 5000 nM
– | – | CCC1(c2cccc(C)c2)C2=C(CC(C)(C)CC2=O)Nc2n[nH]c(C(F)(F)F)c21 (stereo not drawn) [Compound 883873] | IC50 [1, 5]: ≤ 100 nM; IC50 [1, 9]: ≤ 100 nM; IC50 [2, 6]: ≤ 100 nM; IC50 [2, 10]: 100 to 1000 nM
– | – | CCC1(c2cccc(N3CCCC3)c2)C2=C(CC(C)(C)CC2=O)Nc2n[nH]c(C)c21 (stereo not drawn) [Compound 883874] | IC50 [1, 5]: ≤ 100 nM; IC50 [1, 9]: ≤ 100 nM; IC50 [2, 6]: ≤ 100 nM; IC50 [2, 10]: 100 to 1000 nM
– | – | CC[C@]1(c2cccc(N3CCCC3)c2)C2=C(CC(C)(C)CC2=O)Nc2n[nH]c(C)c21 [Compound 883875] | IC50 [1, 5]: 100 to 1000 nM; IC50 [2, 6]: 1000 to 5000 nM
100 to 1000 | 100 to 1000 | CC1(C)CC(=O)C2=C(C1)Nc1n[nH]cc1C21CCN(CC(F)F)CC1 [Compound 883962] | –
≤ 100 | 100 to 1000 | CC1(C)CC(=O)C2=C(C1)Nc1n[nH]cc1C21CCC(F)(F)CC1 [Compound 883972] | –
≤ 100 | 100 to 1000 | CC1(C)CC(=O)C2=C(C1)Nc1n[nH]cc1C21CCSC1 (stereo not drawn) [Compound 883973] | –
– | – | CC1(C)CC(=O)C2=C(C1)Nc1n[nH]cc1C21CCC2(CC1)COC2 [Compound 883977] | IC50 [1, 7]: ≤ 100 nM; IC50 [2, 8]: 100 to 1000 nM
100 to 1000 | 100 to 1000 | CC1(C)CC(=O)C2=C(C1)Nc1n[nH]cc1C21CCCCCC1 [Compound 883978] | –
– | – | CC[C@@]1(c2cccc(C(F)(F)F)c2)C2=C(Nc3n[nH]cc31)[C@H](C)CN(C)C2=O [Compound 883980] | IC50 [1, 7]: ≤ 100 nM; IC50 [1, 9]: 100 to 1000 nM; IC50 [2, 8]: ≤ 100 nM; IC50 [2, 10]: 1000 to 5000 nM
– | – | CC[C@]1(c2cccc(C(F)(F)F)c2)C2=C(Nc3n[nH]cc31)[C@@H](C)CN(C)C2=O [Compound 883981] | IC50 [1, 7]: > 5000 nM; IC50 [2, 8]: > 5000 nM
– | – | CC[C@]1(c2cccc(C(F)(F)F)c2)C2=C(Nc3n[nH]cc31)[C@H](C)CN(C)C2=O [Compound 883982] | IC50 [1, 7]: > 5000 nM; IC50 [2, 8]: > 5000 nM
– | – | CCC1(c2cccc(-c3ccncc3)c2)C2=C(CC(C)(C)CC2=O)Nc2n[nH]cc21 (stereo not drawn) [Compound 883984] | IC50 [1, 5]: ≤ 100 nM; IC50 [2, 6]: ≤ 100 nM
